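Grown in 96-well plates, cells were treated for 48 hours with each compound at five concentrations. Insufficient inhibition: endpoint recorded as highest concentration tested. Here, GI50 denotes the concentration required for 50% inhibition of growth. TGI marks complete inhibition of growth.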 Bounds are passed on as bounds.

Holding throughout (assay): DTP human tumour cell line panel, 48 h
The test system of test [1] is HCT-15 colon.
The test system of test [2] is HOP-92 NSCLC.
Test [3] deals with M14 melanoma.
Test [4] has as its system MOLT-4 leukemia.
Test [5] relates to SK-OV-3 ovarian.
The test system of test [6] is SNB-19 CNS.
The test system of test [7] is TK-10 renal.
For test [8], the system named is UACC-62 melanoma.
The subject of test [9] is MDA-MB-435.

Consider `COc1ccc(/C=C2\C(=O)Nc3ccccc32)cc1OC`, for which the TGI in test [1], in [2], in [3], in [4], in test [5] and in test [6] was greater than 100 µM in each case. Further, the TGI in test [7] and in test [8] was greater than 100 µM each time.

As for `CCCCN(CCCC)C(=O)C(=O)C(C(=O)C(=O)OC)c1nc2ccccc2o1` (stereo unspecified), the TGI in test [1], in test [2], in [3], in test [4], in test [5] and in test [6] was greater than 100 µM in each case. This molecule had a TGI in [7] greater than 100 µM.

`Cn1cnc([N+](=O)[O-])c1Sc1nccn1-c1ccccc1`: the concentration for total growth inhibition (TGI) in test [2] is 81.1 µM; in [3], greater than 100 µM; in test [4], 74.1 µM; in test [5], greater than 100 µM; in [6] it was greater than 100 µM; in test [7], greater than 100 µM. Further, the TGI in test [8] is greater than 100 µM.

`Nc1cc2c(c3ccccc13)C(CCl)CN2C(=O)c1cc2cc(NC(=O)c3cc4ccccc4o3)ccc2[nH]1` (stereo unspecified): the GI50 in [1] and in test [9] was greater than 0.11 µM throughout. The TGI in [1] is 1.15 µM; in test [9], less than 0.11 µM; in test [5], 5.5 µM; in [6], 0.408 µM; in test [8] it was 0.0206 µM.

As to `OCC(O)COc1ccc(F)cc1` (stereo unspecified), the TGI in test [1], in [2], in [3], in test [4], in test [5] and in test [6] was greater than 100 µM each time. Also, the TGI in test [7] and in test [8] was greater than 100 µM in each case.

Consider `Cc1cc2c(=O)cc(-c3ccc(Cl)cc3Cl)oc2c(C(=O)O)c1C`, for which the TGI in test [1], in [3], in [4], in test [5], in test [6] and in [7] was greater than 100 µM in each case. In addition, in test [8], the TGI was greater than 100 µM.

As for `COC1OC(CO)C(O)C(NC(=O)N(C)N=O)C1O` (stereo unspecified), the TGI in test [1], in [2], in test [3], in [4], in test [5] and in [6] was greater than 100 µM each time. This molecule also displayed a TGI in [7] greater than 100 µM.

Take `COc1cc(/C=C(\C)c2ccc3c(c2)OCO3)cc(OC)c1OC`: the total growth inhibition concentration (TGI) was greater than 100 µM in [1]; greater than 100 µM in test [3]; 75.9 µM in test [4]; 75.1 µM in test [5]; greater than 100 µM in test [6]; greater than 100 µM in test [7].

`NC(=S)N/N=C/c1cn(CCCl)c2ccccc12`: the TGI in test [1], in test [2], in test [3], in [4], in [5] and in test [6] was greater than 100 µM throughout. In addition, the TGI in test [7] and in [8] was greater than 100 µM throughout.

With `CC(=O)OC1C(COC(N)=O)OC(n2c(-c3ccc(C)cc3)cc(-c3ccccc3)c(C#N)c2=O)C(OC(C)=O)C1OC(C)=O` (stereo unspecified), the TGI in test [1], in test [2], in test [3], in test [4], in test [5] and in test [6] was greater than 100 µM each time. Besides, the TGI in test [7] and in [8] was greater than 100 µM each time.

For `Cc1cc2c(=O)cc(-c3ccc(Cl)c(Cl)c3)oc2c(C(=O)O)c1C`, the TGI in test [1], in [3], in test [4], in [5], in [6] and in test [7] was greater than 100 µM throughout. The molecule further showed a concentration for total growth inhibition (TGI) in [8] greater than 100 µM.

With `COC(=O)C(=O)C(C(=O)C(=O)Nc1ccccc1C(N)=O)c1nc2ccc([N+](=O)[O-])cc2[nH]c1=O` (stereo unspecified), the concentration for total growth inhibition (TGI) in test [1], in test [2], in [3], in test [4], in test [5] and in test [6] was greater than 100 µM each time. For the same molecule, the TGI in [7] and in [8] was greater than 100 µM in each case.

Turning to `C#CCOCCCC(=O)O`, the TGI in test [1], in test [2], in [3], in [4], in [5] and in test [6] was greater than 100 µM each time. Moreover, the concentration for total growth inhibition (TGI) in test [7] and in test [8] was greater than 100 µM each time.

`Cc1cc2c(=O)cc(-c3ccc(C(=O)O)cc3)oc2c(C(N)=O)c1C`: the TGI in test [1], in test [2], in [3], in [4], in [5] and in test [6] was greater than 100 µM throughout. The TGI in [7] and in test [8] was greater than 100 µM each time.

Turning to `CNC(=O)N(CCCC(NC(C)=O)C(=O)NCc1ccccc1)Cc1ccccc1` (stereo unspecified), the TGI in test [1], in [2], in [3], in test [4], in test [5] and in [6] was greater than 100 µM throughout. The total growth inhibition concentration (TGI) in [7] and in [8] was greater than 100 µM throughout.

Consider `C=CCC1=C2CCCCC2CCC1=O` (stereo unspecified), for which the total growth inhibition concentration (TGI) in test [1], in test [3], in test [4], in [5], in [6] and in test [7] was greater than 100 µM in each case. In test [8], this molecule had a TGI greater than 100 µM.

Consider `CCOc1ccc(N=C2NC(=O)C(CC(=O)Nc3ccc(Cl)cc3Cl)S2)cc1` (stereo unspecified), for which the TGI in test [1], in test [3], in test [4], in test [5], in test [6] and in [7] was greater than 100 µM each time. In test [8], this molecule showed a TGI greater than 100 µM.

For the origin of these results see PubChem BioAssay (NCI).
